Measured values: patent US8106225B2, “Methods of preparing substituted tetracyclines with transition metal-based chemistries” (Trustees of Tufts College, priority 1999, dated 2012)

How the values were obtained:
Assay in all cases: Antibacterial activity in vitro, MIC by broth dilution
Assay type in all cases: cell-based
[1] = system: E. coli D 31m4 pHCM1 Tc^r; conditions: E. coli D 31m4 pHCM1, tetracycline resistant, 18 hrs
Method: (§1) Various compounds made in accordance with the invention were evaluated for anti-bacterial activity in vitro as follows. The minimum inhibitory concentration, the lowest concentration of drug that inhibits bacterial growth at 18 hrs at their appropriate temperature, is determined by the broth dilution method using L-broth or Mueller-Hinton broth. The Mueller-Hinton broth was cation-adjusted accordingly and all bacteriological methods were performed as was described by Waitz, J. A., National Commission for Clinical Laboratory Standards Document M7-A2, vol. 10, no. 8, pp. 13-20, 2nd edition, Villanova, Pa. (1990). The organisms tested represent gram-positive and gram-negative bacterial species that are susceptible to tetracyclines or are resistant to tetracyclines due to the ability to efflux tetracyclines or which confer resistance by ribosomal protection mechanisms. The clinical strains used are either susceptible to tetracyclines or are resistant to them by either drug efflux or ribosomal protection.

[2] = system: E. hirae 9790 with pMV158 Tc^r; conditions: E. hirae 9790 with pMV158, tetracycline resistant, 18 hrs
Method: as §1

E. coli D31m4 Tc^s = conditions: E. coli D31m4, tetracycline susceptible, 18 hrs
Method: as §1

[3] = system: E. hirae 9790 with pAM211 Tc^r; conditions: E. hirae 9790 with pAM211, tetracycline resistant, 18 hrs
Method: as §1

S. aureus RN450 Tc^s = conditions: S. aureus RN450, tetracycline susceptible, 18 hrs
Method: as §1

S. aureus RN4250 Tc^r = conditions: S. aureus RN4250, tetracycline resistant, 18 hrs
Method: as §1

E. coli D1-209 Tc^r = system: E. coli D1-209 Tc^r; parameters: unit not given here; conditions: E. coli D1-209, tetracycline resistant, 18 hrs
Method: as §1

S. aureus MRSA5 Tc^r = system: S. aureus MRSA5 Tc^r; parameters: unit not given here; conditions: S. aureus MRSA5, tetracycline resistant, 18 hrs
Method: as §1

[4] = system: S. warnerii Tc^r ATCC12715; parameters: unit not given here; conditions: S. warnerii ATCC12715, tetracycline resistant, 18 hrs
Method: as §1

E. coli ML308-225 Tc^s = system: E. coli ML308-225 Tc^s; parameters: unit not given here; conditions: E. coli ML308-225, tetracycline susceptible, 18 hrs
Method: as §1

E. hirae ATCC9790 Tc^s = system: E. hirae ATCC9790 Tc^s; parameters: unit not given here; conditions: E. hirae ATCC9790, tetracycline susceptible, 18 hrs
Method: as §1

E. coli D1-299 Tc^r = system: E. coli D1-299 Tc^r; parameters: unit not given here; conditions: E. coli D1-299, tetracycline resistant, 18 hrs
Method: as §1

Compound | Antibacterial Activity (minimum inhibitory concentration) [1] | Antibacterial Activity (minimum inhibitory concentration) [2] | Antibacterial Activity (minimum inhibitory concentration) (E. coli D31m4 Tc^s) | Antibacterial Activity (minimum inhibitory concentration) [3] | Antibacterial Activity (minimum inhibitory concentration) (S. aureus RN450 Tc^s) | Antibacterial Activity (minimum inhibitory concentration) (S. aureus RN4250 Tc^r) | Antibacterial Activity (minimum inhibitory concentration) (E. coli D1-209 Tc^r) | Antibacterial Activity (minimum inhibitory concentration) (S. aureus MRSA5 Tc^r) | Antibacterial Activity (minimum inhibitory concentration) [4] | Antibacterial Activity (minimum inhibitory concentration) (E. coli ML308-225 Tc^s) | Antibacterial Activity (minimum inhibitory concentration) (E. hirae ATCC9790 Tc^s) | Antibacterial Activity (minimum inhibitory concentration) (E. coli D1-299 Tc^r)
CC1c2ccc(/C=C/C(=O)O)c(O)c2C(=O)C2=C(O)C3(O)C(=O)C(C(N)=O)=C(O)[C@@H](N(C)C)C3C(O)C21 (stereo partly drawn) [D, [4S-(4a,12aα)]-9-[3′-(E)-propenoic acid]-4-(dimethylamino)-1,4,4a,5,5a,6,11,12a-octahydro-3,5,10,12,12a-pentahydroxy-6-methyl-1,11-dioxo-2-naphthacenecarboxamide] | >50 | 12.5 | >50 | >50 | 3.12 | >50 | >50 | >50 | >50 | 25 | 3.12 | >50
C[C@H]1c2cccc(O)c2C(=O)C2=C(O)[C@]3(O)C(=O)C(C(N)=O)=C(O)[C@@H](N(C)C)[C@@H]3[C@@H](O)[C@@H]21 [Doxy, [4S-(4a,12aα)]-4-(dimethylamino)-1,4,4a,5,5a,6,11,12a-octahydro-3,5,10,12,12a-pentahydroxy-6-methyl-1,11-dioxo-2-naphthacenecarboxamide, reference compound] | 25 | – | 1.56 | – | <0.098 | 25 | 50 | 6.25 | 50 | 0.78 | 0.195 | 25
CCCCOC(=O)/C=C/c1ccc2c(c1O)C(=O)C1=C(O)C3(O)C(=O)C(C(N)=O)=C(O)[C@@H](N(C)C)C3C(O)C1C2C (stereo partly drawn) [E, [4S-(4a,12aα)]-9-[3′-(E)-butylpropenoate]-4-(dimethylamino)-1,4,4a,5,5a,6,11,12a-octahydro-3,5,10,12,12a-pentahydroxy-6-methyl-1,11-dioxo-2-naphthacenecarboxamide] | – | – | – | – | 0.78 | – | >50 | 0.39 | 6.25 | 6.25 | 3.12 | >50
CCCCOC(=O)/C=C/c1cc(N(C)C)c2c(c1O)C(=O)C1=C(O)C3(O)C(=O)C(C(N)=O)=C(O)C(N(C)C)C3CC1C2 (stereo not drawn) [F, [4S-(4a,12aα)]-9-[3′-(E)-butylpropenoate]-4,7-Bis(dimethylamino)-1,4,4a,5,5a,6,11,12a-octahydro-3,10,12,12a-tetrahydroxy-1,11-dioxo-2-naphthacenecarboxamide] | 6.25 | – | 3.12 | – | 1.56 | – | >50 | 3.12 | 3.12 | >50 | 3.12 | >50
CN(C)C1C(O)=C(C(N)=O)C(=O)C2(O)C(O)=C3C(=O)c4c(O)ccc(-c5ccc(Cl)cc5)c4CC3CC12 (centres unmarked) [G] | 0.78 | ≦0.098 | 0.78 | ≦0.098 | ≦0.098 | ≦0.098 | >50 | 0.195 | ≦0.098 | >50 | ≦0.098 | >50
CN(C)C1C(O)=C(C(N)=O)C(=O)C2(O)C(O)=C3C(=O)c4c(O)c(-c5ccccc5)cc(-c5ccccc5)c4CC3CC12 (stereo not drawn) [H, [4S-(4a,12aα)]-7-phenyl-9-phenyl-4-(dimethylamino)-1,4,4a,5,5a,6,11,12a-octahydro-3,10,12,12a-tetrahydroxy-1,11-dioxo-2-naphthacenecarboxamide] | – | 0.39 | 1.56 | – | 1.56 | 0.78 | >50 | 0.78 | 0.78 | >50 | 0.78 | >50
Cc1ccc(C=C2c3cccc(O)c3C(=O)C3=C(O)C4(O)C(=O)C(C(N)=O)=C(O)C(N(C)C)C4C(O)C23)cc1 (stereo not drawn) [I, [4S-(4a,12aα)]-13-(4′-methylphenyl)-4-(dimethylamino)-1,4,4a,5,5a,6,11,12a-octahydro-3,5,10,12,12a-pentahydroxy-6-methylene-1,11-dioxo-2-naphthacenecarboxamide] | 25 | 3.12 | – | – | ≦0.098 | – | >50 | 6.25 | 12.5 | >50 | 0.39 | >50
CN(C)[C@@H]1C(O)=C(C(N)=O)C(=O)C2(O)C(O)=C3C(=O)c4c(O)cccc4C(=Cc4cccc(C(=O)O)c4)C3C(O)C12 (stereo partly drawn) [J, [4S-(4a,12aα)]-13-(3′-carboxyphenyl)-4-(dimethylamino)-1,4,4a,5,5a,6,11,12a-octahydro-3,5,10,12,12a-pentahydroxy-6-methylene-1,11-dioxo-2-naphthacenecarboxamide] | >50 | >50 | >50 | >50 | 0.39 | >50 | >50 | >50 | >50 | >50 | 3.12 | >50
CCOc1ccc(C=C2c3cccc(O)c3C(=O)C3=C(O)C4(O)C(=O)C(C(N)=O)=C(O)C(N(C)C)C4C(O)C23)cc1 (stereo not drawn) [K, [4S-(4a,12aα)]-13-(4′-ethoxyphenyl)-4-(dimethylamino)-1,4,4a,5,5a,6,11,12a-octahydro-3,5,10,12,12a-pentahydroxy-6-methylene-1,11-dioxo-2-naphthacenecarboxamide] | >50 | – | – | 3.12 | 0.195 | – | >50 | 6.25 | 12.5 | – | 0.39 | >50
